Test results published in patent publication US12226424B2, “Target protein degradation compounds, their anti-tumor use, their intermediates and use of intermediates” (ShanghaiTech University, priority 2018, dated 2025).

Test system: CDK4/6 protein
Assay: Western-blot determination of CDK4/6 protein degradation (DC50) in T-47D cells
Format: cell-based, human
Conditions: 24 h drug treatment, read-out: DC50(nM)/T-47D cell line

SMILES | DC50
CC(=O)c1c(C)c2cnc(Nc3ccc(N4CCN(C(=O)CCCCCCSc5cccc6c5CN(C5CCC(=O)NC5=O)C6=O)CC4)cn3)nc2n(C2CCCC2)c1=O (centres unmarked) [SIAIS219055, 3-(4-((7-(4-(6-((6-acetyl-8-cyclopentyl-5-methyl-7-oxo-7,8-dihydropyrido[2,3-d]pyrimidin-2-yl)amino)pyridin-3-yl)piperazin-1-yl)-7-oxoheptyl)thio)-1-oxoisoindolin-2-yl)piperidine-2,6-dione] | < 1 nM
CN(C)C(=O)c1cc2cnc(Nc3ccc(N4CCN(C(=O)COCCOCCSc5cccc6c5C(=O)N(C5CCC(=O)NC5=O)C6=O)CC4)cn3)nc2n1C1CCCC1 (centres unmarked) [SIAIS219112, 7-cyclopentyl-2-((5-(4-(2-(2-(2-((2-(2,6-dioxopiperidin-3-yl)-1,3-dioxoisoindolin-4-yl)thio)ethoxy)ethoxy)acetyl)piperazin-1-yl)pyridin-2-yl)amino)-N,N-dimethyl-7H-pyrrolo[2,3-d]pyrimidine-6-carboxamide] | 0.04 to 0.2 nM
CC(=O)c1c(C)c2cnc(Nc3ccc(N4CCN(C(=O)COCCOCCOCCOCCOCCSc5cccc6c5C(=O)N(C5CCC(=O)NC5=O)C6=O)CC4)cn3)nc2n(C2CCCC2)c1=O (centres unmarked) [SIAIS219062, 4-((17-(4-(6-((6-acetyl-8-cyclopentyl-5-methyl-7-oxo-7,8-dihydropyrido[2,3-d]pyrimidin-2-yl)amino)pyridin-3-yl)piperazin-1-yl)-17-oxo-3,6,9,12,15-pentaoxaheptadecyl)thio)-2-(2,6-dioxopiperidin-3-yl)isoindoline-1,3-dione] | 1 to 10 nM
CC(=O)c1c(C)c2cnc(Nc3ccc(N4CCN(C(=O)COCCOCCSc5cccc6c5C(=O)N(C5CCC(=O)NC5=O)C6=O)CC4)cn3)nc2n(C2CCCC2)c1=O (centres unmarked) [SIAIS219059, 4-((2-(2-(2-(4-(6-((6-acetyl-8-cyclopentyl-5-methyl-7-oxo-7,8-dihydropyrido[2,3-d]pyrimidin-2-yl)amino)pyridin-3-yl)piperazin-1-yl)-2-oxoethoxy)ethoxy)ethyl)thio)-2-(2,6-dioxopiperidin-3-yl)isoindoline-1,3-dione] | 10 to 50 nM
CN(C)C(=O)c1cc2cnc(Nc3ccc(N4CCN(C(=O)CSc5cccc6c5CN(C5CCC(=O)NC5=O)C6=O)CC4)cn3)nc2n1C1CCCC1 (centres unmarked) [SIAIS219086, 7-cyclopentyl-2-((5-(4-(2-((2-(2,6-dioxopiperidin-3-yl)-1-oxoisoindolin-4-yl)thio)acetyl)piperazin-1-yl)pyridin-2-yl)amino)-N,N-dimethyl-7H-pyrrolo[2,3-d]pyrimidine-6-carboxamide] | < 1 nM
CC(=O)c1c(C)c2cnc(Nc3ccc(N4CCN(C(=O)CCCSc5cccc6c5CN(C5CCC(=O)NC5=O)C6=O)CC4)cn3)nc2n(C2CCCC2)c1=O (centres unmarked) [SIAIS219053, 3-(4-((4-(4-(6-((6-acetyl-8-cyclopentyl-5-methyl-7-oxo-7,8-dihydropyrido[2,3-d]pyrimidin-2-yl)amino)pyridin-3-yl)piperazin-1-yl)-4-oxobutyl)thio)-1-oxoisoindolin-2-yl)piperidine-2,6-dione] | < 1 nM
CN(C)C(=O)c1cc2cnc(Nc3ccc(N4CCN(C(=O)CCSc5cccc6c5C(=O)N(C5CCC(=O)NC5=O)C6=O)CC4)cn3)nc2n1C1CCCC1 (centres unmarked) [SIAIS219101, 7-cyclopentyl-2-((5-(4-(3-((2-(2,6-dioxopiperidin-3-yl)-1,3-dioxoisoindolin-4-yl)thio)propanoyl)piperazin-1-yl)pyridin-2-yl)amino)-N,N-dimethyl-7H-pyrrolo[2,3-d]pyrimidine-6-carboxamide] | < 100 nM
CC(=O)c1c(C)c2cnc(Nc3ccc(N4CCN(CCSc5cccc6c5C(=O)N(C5CCC(=O)NC5=O)C6=O)CC4)cn3)nc2n(C2CCCC2)c1=O (centres unmarked) [SIAIS219063, 4-((2-(4-(6-((6-acetyl-8-cyclopentyl-5-methyl-7-oxo-7,8-dihydropyrido[2,3-d]pyrimidin-2-yl)amino)pyridin-3-yl)piperazin-1-yl)ethyl)thio)-2-(2,6-dioxopiperidin-3-yl)isoindoline-1,3-dione] | < 1 nM
Cc1nc2c(F)cc(-c3nc(Nc4ccc(CN5CCN(C(=O)CCCCSc6cccc7c6CN(C6CCC(=O)NC6=O)C7=O)CC5)cn4)ncc3F)cc2n1C(C)C (centres unmarked) [SIAIS262167, 3-(4-((5-(4-((6-((5-fluoro-4-(4-fluoro-1-isopropyl-2-methyl-1H-benzo[d]imidazol-6-yl)pyrimidin-2-yl)amino)pyridin-3-yl)methyl)piperazin-1-yl)-5-oxopentyl)thio)-1-oxoisoindolin-2-yl)piperidine-2,6-dione] | 0.5 to 5 nM
CC(=O)c1c(C)c2cnc(Nc3ccc(N4CCN(C(=O)CCCCCSc5cccc6c5C(=O)N(C5CCC(=O)NC5=O)C6=O)CC4)cn3)nc2n(C2CCCC2)c1=O (centres unmarked) [SIAIS184089, 4-((6-(4-(6-((6-acetyl-8-cyclopentyl-5-methyl-7-oxo-7,8-dihydropyrido[2,3-d]pyrimidin-2-yl)amino)pyridin-3-yl)piperazin-1-yl)-6-oxohexyl)thio)-2-(2,6-dioxopiperidin-3-yl)isoindoline-1,3-dione] | 1 to 10 nM
CC(=O)c1c(C)c2cnc(Nc3ccc(N4CCN(C(=O)CCCCSc5cccc6c5C(=O)N(C5CCC(=O)NC5=O)C6=O)CC4)cn3)nc2n(C2CCCC2)c1=O (centres unmarked) [SIAIS184088, 4-((5-(4-(6-((6-acetyl-8-cyclopentyl-5-methyl-7-oxo-7,8-dihydropyrido[2,3-d]pyrimidin-2-yl)amino)pyridin-3-yl)piperazin-1-yl)-5-oxopentyl)thio)-2-(2,6-dioxopiperidin-3-yl)isoindoline-1,3-dione] | 1 to 10 nM
CN(C)C(=O)c1cc2cnc(Nc3ccc(N4CCN(C(=O)CCCCCCSc5cccc6c5CN(C5CCC(=O)NC5=O)C6=O)CC4)cn3)nc2n1C1CCCC1 (centres unmarked) [SIAIS219091, 7-cyclopentyl-2-((5-(4-(7-((2-(2,6-dioxopiperidin-3-yl)-1-oxoisoindolin-4-yl)thio)heptanoyl)piperazin-1-yl)pyridin-2-yl)amino)-N,N-dimethyl-7H-pyrrolo[2,3-d]pyrimidine-6-carboxamide] | < 1 nM
CN(C)C(=O)c1cc2cnc(Nc3ccc(N4CCN(C(=O)COCCOCCOCCSc5cccc6c5C(=O)N(C5CCC(=O)NC5=O)C6=O)CC4)cn3)nc2n1C1CCCC1 (centres unmarked) [SIAIS219113, 7-cyclopentyl-2-((5-(4-(2-(2-(2-(2-((2-(2,6-dioxopiperidin-3-yl)-1,3-dioxoisoindolin-4-yl)thio)ethoxy)ethoxy)ethoxy)acetyl)piperazin-1-yl)pyridin-2-yl)amino)-N,N-dimethyl-7H-pyrrolo[2,3-d]pyrimidine-6-carboxamide] | < 1 nM
CN(C)C(=O)c1cc2cnc(Nc3ccc(N4CCN(C(=O)COCCOCCOCCOCCOCCSc5cccc6c5CN(C5CCC(=O)NC5=O)C6=O)CC4)cn3)nc2n1C1CCCC1 (centres unmarked) [SIAIS219110, 7-cyclopentyl-2-((5-(4-(17-((2-(2,6-dioxopiperidin-3-yl)-1-oxoisoindolin-4-yl)thio)-3,6,9,12,15-pentaoxaheptadecanoyl)piperazin-1-yl)pyridin-2-yl)amino)-N,N-dimethyl-7H-pyrrolo[2,3-d]pyrimidine-6-carboxamide] | 0.04 to 0.2 nM

Same assay, conditions: read-out: DC50(nM)/T-47D cell line, 24 h drug treatment

SMILES | DC50
CN(C)C(=O)c1cc2cnc(Nc3ccc(N4CCN(C(=O)COCCSc5cccc6c5C(=O)N(C5CCC(=O)NC5=O)C6=O)CC4)cn3)nc2n1C1CCCC1 (centres unmarked) [SIAIS219111, 7-cyclopentyl-2-((5-(4-(2-(2-((2-(2,6-dioxopiperidin-3-yl)-1,3-dioxoisoindolin-4-yl)thio)ethoxy)acetyl)piperazin-1-yl)pyridin-2-yl)amino)-N,N-dimethyl-7H-pyrrolo[2,3-d]pyrimidine-6-carboxamide] | < 1 nM

Test system: K562 cells (BCR-ABL positive)
Assay: Half inhibitory concentration (IC50) on tumor cells, CCK-8, K562
Conditions: Homo sapiens, K562, 48 h, read-out: IC50 (nM)/K562 cell line
Method: Determination of Half Inhibitory Concentration (IC50) of PROTAD Compounds on Tumor Cells
K562 cells were seeded in 100 μL of RPMI1640 complete medium at a density of 20,000 cells/well. 100 μL of the inoculated cells were treated with 100 μL diluted PROTAD compound of the present disclosure to be tested at 9 successively decreasing concentrations (starting at the highest concentration of 10 μM; 3-fold serial dilutions). After the cells were treated with the tested drugs for 48 hours, the cell viability determination was performed in accordance with CCK-8 reagent operating instructions. The negative control was DMSO, and positive control was a commercial inhibitor. After CCK-8 treatment for 2 h, the value of O.D.450 was measured using a microplate reader.

SMILES | IC50
Cc1ccc(C(=O)Nc2ccc(CN3CCN(C(=O)CSc4cccc5c4CN(C4CCC(=O)NC4=O)C5=O)CC3)c(C(F)(F)F)c2)cc1C#Cc1cnc2cccnn12 (centres unmarked) [SIAIS220051, N-(4-((4-(2-((2-(2,6-dioxopiperidin-3-yl)-1-oxoisoindolin-4-yl)thio)acetyl)piperazin-1-yl)methyl)-3-(trifluoromethyl)phenyl)-3-(imidazo[1,2-b]pyridazin-3-ylethynyl)-4-methylbenzamide] | 1.78 nM
Cc1ccc(C(=O)Nc2ccc(CN3CCN(C(=O)CCCCSc4cccc5c4C(=O)N(C4CCC(=O)NC4=O)C5=O)CC3)c(C(F)(F)F)c2)cc1C#Cc1cnc2cccnn12 (centres unmarked) [SIAIS220048, N-(4-((4-(5-((2-(2,6-dioxopiperidin-3-yl)-1,3-dioxoisoindolin-4-yl)thio)pentanoyl)piperazin-1-yl)methyl)-3-(trifluoromethyl)phenyl)-3-(imidazo[1,2-b]pyridazin-3-ylethynyl)-4-methylbenzamide] | 4.06 nM
COc1cc(Nc2c(C#N)cnc3cc(OCCCN4CCN(C(=O)CCCCCSc5cccc6c5C(=O)N(C5CCC(=O)NC5=O)C6=O)CC4)c(OC)cc23)c(Cl)cc1Cl (centres unmarked) [SIAIS151172, 4-((2,4-dichloro-5-methoxyphenyl)amino)-7-(3-(4-(6-((2-(2,6-dioxopiperidin-3-yl)-1,3-dioxoisoindolin-4-yl)thio)hexanoyl)piperazin-1-yl)propoxy)-6-methoxyquinoline-3-carbonitrile] | 1370 nM
Cc1nc(Nc2ncc(C(=O)Nc3c(C)cccc3Cl)s2)cc(N2CCN(CCCSc3cccc4c3CN(C3CCC(=O)NC3=O)C4=O)CC2)n1 (centres unmarked) [SIAIS171181, N-(2-chloro-6-methylphenyl)-2-((6-(4-(3-((2-(2,6-dioxopiperidin-3-yl)-1-oxoisoindolin-4-yl)thio)propyl)piperazin-1-yl)-2-methylpyrimidin-4-yl)amino)thiazole-5-carboxamide] | 0.09 nM
Cc1ccc(C(=O)Nc2ccc(CN3CCN(C(=O)CCCCCCSc4cccc5c4C(=O)N(C4CCC(=O)NC4=O)C5=O)CC3)c(C(F)(F)F)c2)cc1C#Cc1cnc2cccnn12 (centres unmarked) [SIAIS220050, N-(4-((4-(7-((2-(2,6-dioxopiperidin-3-yl)-1,3-dioxoisoindolin-4-yl)thio)heptanoyl)piperazin-1-yl)methyl)-3-(trifluoromethyl)phenyl)-3-(imidazo[1,2-b]pyridazin-3-ylethynyl)-4-methylbenzamide] | 12.8 nM
